Assay results reported in patent publication US20220313620A1, “COMPOSITION FOR PREVENTING AND TREATING TAUOPATHIES” (SERVICIO ANDALUZ DE SALUD, priority 2019, published 2022).

System: Pyruvate Kinase Liver/RBC (Pklr)
Assay: Liver pyruvate kinase gene expression (qPCR) after acute oral gavage
Assay type: in vivo
Conditions: oral 100 mg/kg, adult male Wistar rats, FIG. 2D
Procedure: After 18 hours of fasting, D-Pinitol dissolved in water was administered acutely by gavage (100 mg/kg in a first study, and 500 mg/kg in a subsequent study). After administration, the animals were sacrificed in groups at different times (being time 0 the administration of D-Pinitol). For the first study (100 mg/kg), groups of animals were sacrificed at times: 10, 20, 30, 60, 120, 240 and 360 minutes after administration; for the second study (500 mg/kg), animals were sacrificed at times: 60, 120 and 240 minutes after administration. As a control group, a group was administered only with water (by gavage). […]
Total RNA was extracted from tissue portions of liver (100-300 mg) using the Trizol® method according to the manufacturer's instructions (GIBCO BRL Life Technologies). […] Total RNA was quantified using a spectrophotometer (Nanodrop 1000 Spectrophotometer, Thermo Scientific) to ensure A260/280 ratios of 1.8 to 2.0. […]
Real-time qPCR was performed following the criteria of the MIQE guidelines (Bustin, S. A. et al. The MIQE guidelines: minimum information for publication of quantitative real-time PCR experiments. Clin Chem. 55,611-622 (2009)). […] For all reference and target gene studies, two independent biologic samples of each experimental condition were evaluated in technical duplicates. […]

Compound: COC1[C@@H](O)[C@@H](O)C(O)[C@H](O)[C@H]1O (stereo partly drawn) [DPIN, (1S,2S,4S,5R)-6-methoxycyclohexane-1,2,3,4,5-pentol]
- expression of Pyruvate Kinase: Inhibition
